Measurements published in patent publication US8183236B2, “Compounds with HIV-1 integrase inhibitory activity and use thereof as anti-HIV/AIDS therapeutics” (University of Southern California, priority 2007, dated 2012).

Tests used:
[1] = biological target: T1, HIV-1 integrase (wild-type IN) (Human immunodeficiency virus type 1 group M subtype B, UniProt P12497); experiment: HIV-1 integrase 3′-processing assay (32P-labeled 21-mer, gel); format: biochemical
Procedure, shortened: (§1)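 Wild-type IN at 200 nM preincubated with inhibitor 30 min at 30 °C in MnCl2 (7.5 mM), pH 7.2 MOPS buffer with 10% DMSO, then 20 nM 5′-32P-labeled 21-mer duplex added for 1 h. 19-mer and strand-transfer products resolved on denaturing 20% gels by phosphorimaging; IC50 from log concentration versus % inhibition.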

[2] = biological target: T1, HIV-1 integrase (wild-type IN); experiment: HIV-1 integrase strand transfer assay (32P-labeled 21-mer, gel); format: biochemical
Procedure, shortened: as §1

[3] = wild-type IN 200 nM, 7.5 mM MnCl2, read-out: Inhibition of IN Catalytic Activities IC50 (μM) 3′-processing
[4] = wild-type IN 200 nM, 7.5 mM MnCl2, read-out: Inhibition of IN Catalytic Activities IC50 (μM) Strand Transfer
[5] = unit inferred, read-out: HIV-1 IN Inhibitory Activities 3′-processing
[6] = unit inferred, read-out: HIV-1 IN Inhibitory Activities Strand transfer
[7] = unit inferred, read-out: IN inhibition activity 3′-processing
[8] = unit inferred, read-out: IN inhibition activity Strand transfer
[9] = Table 53, structurally diverse compounds, read-out: IN inhibition activity 3′-processing
[10] = Table 53, structurally diverse compounds, read-out: IN inhibition activity Strand transfer

| SMILES | IC50 [1, 3] | IC50 [2, 4] | IC50 [1, 7] | IC50 [2, 8] | other results |
| --- | --- | --- | --- | --- | --- |
| COc1ccc(C=C2SC(=S)N(CCC(=O)Nc3ccc(C(=O)O)c(O)c3)C2=O)cc1OC [Compound X192] | 61 ± 34 µM | 17 ± 4 µM |  |  |  |
| O=C(N/N=C1\C(=O)Nc2ccc(Br)cc21)/C(O)=C/C(=O)c1ccc(Cl)cc1 [Example X115] |  |  |  |  | IC50 [1, 5]: 42 µM; IC50 [2, 6]: 28 µM |
| N#C/C(=C\c1ccc(-c2ccc(O)c(C(=O)O)c2)o1)c1nc2ccccc2[nH]1 [AV15A9] |  |  | 25 ± 10 µM | 14 ± 4 µM |  |
| NC(=S)N1CCN(c2c(F)c(N)c3c(=O)c(C(=O)O)cn(C4CC4)c3c2F)CC1 [ROM3A5] | > 100 µM | > 100 µM |  |  |  |
| COc1cc(/C=C2/SC(=S)N(CC(=O)O)C2=O)ccc1OCc1ccccc1 [OT3] | > 100 µM | 92 ± 7 µM |  |  |  |
| Cc1cc2nc3s/c(=C\c4ccc(-c5cccc(C(=O)O)c5)o4)c(=O)n3c2cc1C [AV15A32] |  |  | > 100 µM | > 100 µM |  |
| COC(=O)c1ccc(/C=N/Nc2nc3nonc3nc2Nc2ccccc2F)cc1 [AV15A19] |  |  | > 100 µM | > 100 µM |  |
| O=C(N/N=C/c1ccc(-c2ccc(Cl)c(C(=O)O)c2)o1)c1ccc(F)cc1 [AV15A41] |  |  | > 100 µM | > 100 µM |  |
| COCCN1C(=O)/C(=C\c2ccc(OCc3ccc(C(=O)O)cc3)c(OC)c2)SC1=S [OT35] | 41 ± 11 µM | 38 ± 16 µM |  |  |  |
| CCOc1cc(CNc2nn[nH]n2)cc(Cl)c1OCc1ccc(Cl)cc1 [GLD19] |  |  |  |  | IC50 [1, 9]: > 100 µM; IC50 [2, 10]: 52 ± 8 µM |
| CC1=NN2C(=N)/C(=C/c3ccc(-c4ccccc4Cl)o3)C(=O)N=C2S1 [RT42] | > 100 µM | > 100 µM |  |  |  |
| O=C(NC(=S)Nc1ccc(O)c(C(=O)O)c1)c1ccccc1 [Compound X199] | > 100 µM | > 100 µM |  |  |  |
| CCCCn1c(=O)c(C(=O)Nc2ccccc2S(N)(=O)=O)c(O)c2ccccc21 [XR14] | 15 µM | 17 µM |  |  |  |
| Clc1ccc(-c2ccc(/C=N/Nc3nc(Nc4ccccc4)nc(Nc4ccccc4)n3)o2)cc1 [AV15A39] |  |  | > 100 µM | > 100 µM |  |
| O=C(O)c1cccc(-c2ccc(/C=N/NC(=O)c3cccnc3)o2)c1 [AV15A4] |  |  | > 100 µM | 96 ± 6 µM |  |
| O=C(CCN1C(=O)/C(=C/c2cccs2)SC1=S)Nc1ccc2ccccc2c1 [Compound X174] | > 100 µM | > 100 µM |  |  |  |
| COc1ccc(-c2nnc(SCC(=O)N/N=C/c3ccccc3C(=O)O)n2-c2ccccc2)cc1OC [GLD38] |  |  | > 100 µM | > 100 µM |  |
| O=C(CSc1nnc(-c2ccncc2)n1-c1ccc(F)cc1)NNC(=O)c1ccccc1O [AS9A7] |  |  | 49 ± 1 µM | 31 ± 2 µM |  |
| Cc1ccc(C(=O)C2=C(O)C(=O)N(c3nccs3)C2c2ccc(Cl)cc2)cc1 (centres unmarked) [Compound M28A6] |  |  | 56 ± 10 µM | 39 ± 3 µM |  |
| Cn1c(=O)c(C(=O)Nc2ccccc2C(F)(F)F)c(O)c2ccccc21 [XR12] | 81 µM | 28 µM |  |  |  |
| O=C(CSc1nc(CSc2ccc(Cl)cc2)cc(=O)[nH]1)Nc1ccc(Cl)cc1Cl [Example X272] |  |  |  |  | IC50 [1, 5]: 34 µM; IC50 [2, 6]: 24 µM |
| O=C(CN1C(=O)/C(=C2\SC(=S)N(CC(=O)Nc3ccc(C(=O)O)cc3)C2=O)SC1=S)Nc1ccc(C(=O)O)cc1 [Compound X102] | 59 ± 31 µM | 75 µM |  |  |  |
| O=C(COc1ccccc1[N+](=O)[O-])Nc1ccc(O)c(-c2nc3ccccc3s2)c1 [Compound X257] |  |  |  |  | IC50 [1, 5]: 99 µM; IC50 [2, 6]: 80 µM |
| COc1ccc(C2C(C(=O)c3ccc(Br)cc3)=C(O)C(=O)N2c2cccc(C(F)(F)F)c2)cc1OC (centres unmarked) [AS134] |  |  | 47 ± 7 µM | 26 ± 9 µM |  |
| N#C/C(=C\c1ccc(-c2ccc(Cl)c(C(=O)O)c2)o1)c1nc2ccccc2[nH]1 [AV15A10] |  |  | 76 µM | 30 µM |  |
| CCn1cc(C(=O)O)c(=O)c2c(N)c(F)c(N3CCNCC3)c(F)c21 [ROM3A7] | > 100 µM | 95 µM |  |  |  |
| O=C(Cc1ccccc1)Nc1cc(C(=O)O)c(NC(=O)Cc2ccccc2)cc1C(=O)O [Compound X7] | 9 µM | 7 µM |  |  |  |

| SMILES | IC50 [1, 3] | IC50 [2, 4] | IC50 [1, 7] | IC50 [2, 8] | other results |
| --- | --- | --- | --- | --- | --- |
| Cc1ccc(C2C(C(=O)c3ccc(Cl)cc3)=C(O)C(=O)N2CC(=O)O)cc1 (centres unmarked) [Compound X81] |  |  | 84 ± 23 µM | 69 ± 36 µM | IC50 [1, 5]: 84 µM; IC50 [2, 6]: 69 µM |
| O=C(CSc1nnc(-c2ccc(Cl)cc2)n1-c1ccccc1)N/N=C/c1ccccc1C(=O)O [GLD39] |  |  | > 100 µM | > 100 µM |  |
| CC(=O)C1=C(O)C(=O)N(CC(=O)O)C1c1ccc(Br)cc1 (centres unmarked) [Compound X36] |  |  |  |  | IC50 [1, 5]: > 100 µM; IC50 [2, 6]: > 100 µM |
| CC(=Cc1ccccc1)C=C1SC(=S)N(CCC(=O)Nc2ccc(O)c(C(=O)O)c2)C1=O [Compound X185] | 36 ± 23 µM | 23 ± 3 µM |  |  |  |
| O=C(CSc1nc2scc(-c3ccco3)c2c(=O)n1-c1ccccc1)NCc1ccco1 [OT51] | 36 ± 29 µM | 14 ± 4 µM |  |  |  |
| O=C(N/N=C/c1ccc(-c2ccc(Cl)c(C(=O)O)c2)o1)c1ccncc1 [AV15A40] |  |  | 90 ± 18 µM | 46 ± 23 µM |  |
| CCOc1ccc(C(=O)C2=C(O)C(=O)N(c3nccs3)C2c2ccc(OC)cc2)cc1 (centres unmarked) [Compound M28A11] |  |  | > 100 µM | 90 ± 17 µM |  |
| O=C(O)C(Cc1c[nH]c2ccccc12)NS(=O)(=O)c1ccccc1[N+](=O)[O-] (centres unmarked) [Example X182] |  |  |  |  | IC50 [1, 5]: 88 µM; IC50 [2, 6]: 56 µM |
| CCCc1cc2c(-c3ccccc3)cc(=O)oc2cc1OCc1ccc(C(=O)O)o1 [OT32] | 72 ± 8 µM | 57 ± 22 µM |  |  |  |
| Cc1c(C(c2ccc(O)c(O)c2)c2c(C)n(C)n(-c3ccccc3)c2=O)c(=O)n(-c2ccccc2)n1C [Example X219] |  |  |  |  | IC50 [1, 5]: 89 µM; IC50 [2, 6]: 31 µM |
| Nc1nonc1C(=O)N/N=C/c1ccc(-c2cccc(C(=O)O)c2)o1 [AV15A5] |  |  | > 100 µM | 88 ± 21 µM |  |
| O=C(CCN1C(=O)/C(=C/c2ccc3c(c2)OCO3)SC1=S)Nc1ccc2c(c1)OCO2 [Compound X187] | 97 ± 6 µM | 93 ± 12 µM |  |  |  |
| CCn1cc(C(=O)O)c(=O)c2cc(F)c(N3CCN(S(=O)(=O)c4ccc(NC(C)=O)cc4)CC3)cc21 [SR9] | > 100 µM | > 100 µM |  |  |  |
| N#C/C(=C\c1ccc(-c2ccc(C(=O)O)c(O)c2)o1)c1nc2ccccc2[nH]1 [AV15A31] |  |  | 34 µM | 24 µM |  |
| CCCCCn1c(=O)c(C(=O)Nc2cc([N+](=O)[O-])ccc2O)c(O)c2ccccc21 [XR6] | 9 µM | 9 µM |  |  |  |
| O=C(CSc1nc2ccccc2n1Cc1ccccc1)N/N=C/c1cc(Br)ccc1O [Compound X244] |  |  | 60 ± 11 µM | 51 ± 3 µM |  |
| COc1cccc(NC(=O)c2sc3[nH]c(=O)c(C(=O)O)cc3c2N)c1 [GLD45] |  |  | 82 ± 13 µM | 43 ± 12 µM |  |
| COc1ccc(-c2nnc(SCC(=O)NNC(=O)c3ccccc3O)n2-c2ccccc2)cc1OC [AS9A10] |  |  | 22 ± 1 µM | 21 ± 1 µM |  |
| O=C(O)C1CCCCC1C(=O)Nc1ccc(Oc2cccc3ccccc23)cc1 (centres unmarked) [GLD32] |  |  |  |  | IC50 [1, 9]: > 100 µM; IC50 [2, 10]: 34 ± 7 µM |
| COc1ccc(/C=C2/SC(=S)N(CC(=O)O)C2=O)cc1CCc1ccc(Cl)cc1Cl [OT6] | 17 ± 4 µM | 13 ± 7 µM |  |  |  |
| COc1ccc(OC)c(C2C(C(=O)c3ccc(Cl)cc3)=C(O)C(=O)N2CCCCCC(=O)O)c1 (centres unmarked) [AS16] |  |  | 88 µM | 40 ± 5 µM |  |
| O=C(C1=C(O)C(=O)N(c2nc3ccccc3s2)C1c1ccccn1)c1ccc(Cl)cc1 (centres unmarked) [Compound M28A22] |  |  | > 100 µM | 83 ± 12 µM |  |
| COc1ccc(/C=C2/SC(=S)N(CC(=O)O)C2=O)cc1OCc1ccccc1F [OT37] | > 100 µM | 79 ± 8 µM |  |  |  |
| O=C(CCN1C(=O)C(=Cc2ccc3c(c2)OCO3)SC1=S)Nc1ccc(O)c(C(=O)O)c1 [Compound X94] | 15 ± 10 µM | 17 ± 11 µM |  |  |  |
| COc1cc(C(=O)Nc2ccc(O)c(-c3nc4ccccc4o3)c2)cc(OC)c1OC [XR18] |  |  |  |  | IC50 [1, 5]: < 100 µM; IC50 [2, 6]: < 100 µM |
| COc1ccc(N(CC(=O)N/N=C/c2c(O)ccc3ccccc23)S(C)(=O)=O)cc1Cl [Example X279] |  |  |  |  | IC50 [1, 5]: 95 µM; IC50 [2, 6]: 59 µM |
| O=C(N/N=C/c1cc(Br)ccc1O)/C(=C/C=C/c1ccccc1)NC(=O)c1ccccc1 [Compound X234] |  |  |  |  | IC50 [1, 5]: 90 µM; IC50 [2, 6]: 23 µM |
